Test results: US8410292B2, “Epoxy-guaiane derivatives and treatment of cancer” (The United States of America, as represented by the …, priority 2008, dated 2013)
Read-outs that look alike come from different tables or passages of the source.

Key:
[1] = tested on: SF-295; experiment: 2-day cell growth assay, SF-295; type: cell-based, human
Description: (§1) The primary endpoints of these assays are the formazan XTT, or alternatively, and in preference, the protein stain sulforhodamine B. All samples are tested in […] 10-fold dilutions with no drug and no-cell controls on each microtiter plate. IC50 values are calculated using SOFTMAX™ software as supplied by the manufacturer of the microplate reader.

[2] = tested on: UO-31; experiment: 2-day cell growth assay, UO-31; type: cell-based, human
Description: as §1

[3] = tested on: 786-0; experiment: NCI 60-cell line protocol, 786-0; type: cell-based, human; conditions: two days exposure, SRB endpoint
Description: (§2) Samples are tested in the standard National Cancer Institute 60-cell line protocol. First, they are tested against all 60 cell lines in a single final concentration of 10 micromolar. Then, they are separately tested in five 10-fold dilutions. The drug exposure is two days, with an SRB endpoint.

[4] = tested on: A498; experiment: NCI 60-cell line protocol, A498; type: cell-based, human; conditions: two days exposure, SRB endpoint
Description: as §2

[5] = tested on: ACHN; experiment: NCI 60-cell line protocol, ACHN; type: cell-based, human; conditions: two days exposure, SRB endpoint
Description: as §2

[6] = tested on: CAKI-1; experiment: NCI 60-cell line protocol, CAKI-1; type: cell-based, human; conditions: two days exposure, SRB endpoint
Description: as §2

[7] = tested on: RXF-393; experiment: NCI 60-cell line protocol, RXF-393; type: cell-based, human; conditions: two days exposure, SRB endpoint
Description: as §2

[8] = tested on: SN12C; experiment: NCI 60-cell line protocol, SN12C; type: cell-based, human; conditions: two days exposure, SRB endpoint
Description: as §2

[9] = tested on: TK-10; experiment: NCI 60-cell line protocol, TK-10; type: cell-based, human; conditions: two days exposure, SRB endpoint
Description: as §2

[10] = tested on: UO-31; experiment: NCI 60-cell line protocol, UO-31; type: cell-based, human; conditions: two days exposure, SRB endpoint
Description: as §2

[11] = tested on: renal cancer cell lines; experiment: NCI 60-cell line protocol, summary over renal lines; type: cell-based, human
Description: as §2

[12] = tested on: all 60 cell lines; experiment: NCI 60-cell line protocol, all 60 lines; type: cell-based, human; conditions: mean over all 60 cell lines, read-out: All 60 mean GI-50
Description: as §2

[13] = tested on: renal cancer cell line A498; experiment: 2-cell assay; type: cell-based
Description: A sample ([…]) of englerin B was stirred in pyridine (0.25 mL) and acetic anhydride (0.25 mL) overnight at room temperature. The solvents were evaporated under vacuum and the product extracted in dichloromethane. The crude product was purified on pTLC (Si gel 60 F254; 2% MeOH/DCM) to give englerin B monoacetate (2.0 mg, 95%).

[14] = Homo sapiens, SF-295, 48 h, insensitive CNS tumor line, read-out: SF-295 IC50
[15] = Homo sapiens, UO-31, 48 h, 2-day cell growth assay, sensitive renal line; read-out: UO-31 IC50
[16] = ratio of IC50 SF-295 to IC50 UO-31
[17] = median over renal cell lines, read-out: Median GI50
[18] = insensitive CNS tumor line, read-out: SF-295 IC50
[19] = 2-day cell growth assay, sensitive renal line; read-out: UO-31 IC50
[20] = geometric mean over renal cell lines, read-out: Geometric Mean GI50
[21] = mean over renal cell lines, read-out: Mean GI50

CC1CCC2C1C(OC(=O)C(Cl)C(Cl)c1ccccc1)C1(C(C)C)CC(OC(=O)CO)C2(C)O1 (single isomer, unassigned) [2′,3′-Dichlorodihydroenglerin A (epimer 1)]
IC50 [1, 14]: 90 µM
IC50 [2, 15]: 1.2 µM
Selectivity SF-295/UO-31 [2, 16]: 75
GI50 ([3]; Homo sapiens, 786-0, 48 h): 12 µM
GI50 [4]: 0.14 µM
GI50 [5]: 0.14 µM
GI50 ([6]; Homo sapiens, CAKI-1, 48 h): 0.42 µM
GI50 [7]: 0.93 µM
GI50 ([8]; Homo sapiens, SN12C, 48 h): 1 µM
GI50 ([9]; Homo sapiens, TK-10, 48 h): 18 µM
GI50 ([10]; Homo sapiens, UO-31, 48 h): 0.39 µM
GI50 ([11]; Homo sapiens, 60 cell, geometric mean over renal cell lines, read-out: Geometric Mean GI50): 0.94 µM
GI50 ([11]; Homo sapiens, 60 cell, mean over renal cell lines, read-out: Mean GI50): 4.09 µM
GI50 [11, 17]: 0.68 µM
GI50 ([12]; Homo sapiens, 60 cell): 8.3 µM

CC1CCC2C1C(OC(=O)C(Cl)C(Cl)c1ccccc1)C1(C(C)C)CC(OC(=O)CO)C2(C)O1 (single isomer, unassigned) [2′,3′-Dichlorodihydroenglerin A (epimer 2)]
IC50 [1, 18]: 60 µM
IC50 [2, 19]: 0.75 µM
Selectivity SF-295/UO-31 [2, 16]: 80
GI50 [3]: 12 µM
GI50 [4]: 0.049 µM
GI50 [5]: 0.32 µM
GI50 [6]: 0.32 µM
GI50 [7]: 0.32 µM
GI50 [8]: 1 µM
GI50 [9]: 25 µM
GI50 [11, 20]: 0.72 µM
GI50 [11, 21]: 5.55 µM
GI50 [11, 17]: 0.32 µM
GI50 [12]: 11.7 µM

CC1CCC2C1C(OC(=O)C(Cl)C(O)c1ccccc1)C1(C(C)C)CC(OC(=O)CO)C2(C)O1 (single isomer, unassigned) [2′-Chloro,3′-hydroxydihydroenglerin (epimer 1), 2′-Chloro,3′-hydroxydihydroenglerin A (epimer 1)]
IC50 ([1]; read-out: SF-295 IC50, insensitive CNS tumor line): > 100 µM
Selectivity SF-295/UO-31 [2, 16]: >104
IC50 ([2]; read-out: UO-31 IC50; 2-day cell growth assay, sensitive renal line): 0.96 µM
GI50 [3]: 1.7 µM
GI50 [4]: 0.18 µM
GI50 [5]: 0.32 µM
GI50 [6]: 0.46 µM
GI50 ([7]; Homo sapiens, RXF 393, 48 h): 0.51 µM
GI50 [8]: 0.63 µM
GI50 ([9]; Homo sapiens, TK-10, 48 h): 17 µM
GI50 [10]: 0.25 µM
GI50 [11, 20]: 0.7 µM
GI50 [11, 21]: 2.58 µM
GI50 [11, 17]: 0.49 µM
GI50 ([12]; Homo sapiens, 60 cell): 6.9 µM

CC1CCC2C1C(OC(=O)C(Cl)C(O)c1ccccc1)C1(C(C)C)CC(OC(=O)CO)C2(C)O1 (single isomer, unassigned) [2′-Chloro,3′-hydroxydihydroenglerin (epimer 2), 2′-Chloro,3′-hydroxydihydroenglerin A (epimer 2)]
IC50 [1, 18]: 92 µM
IC50 [2, 19]: 8.7 µM
Selectivity SF-295/UO-31 [2, 16]: 11
GI50 [3]: 11 µM
GI50 [4]: 0.66 µM
GI50 [5]: 1.38 µM
GI50 [6]: 9.3 µM
GI50 [7]: 0.39 µM
GI50 [8]: 4.7 µM
GI50 [9]: 27 µM
GI50 [10]: 1.9 µM
GI50 [11, 20]: 3.13 µM
GI50 [11, 21]: 7.07 µM
GI50 [11, 17]: 3.32 µM
GI50 [12]: 12 µM

CC1CCC2C1C(OC(=O)C(Cl)C(O)c1ccccc1)C1(C(C)C)CC(OC(=O)CO)C2(C)O1 (single isomer, unassigned) [2′-Chloro,3′-hydroxydihydroenglerin (epimer 3), 2′-Chloro,3′-hydroxydihydroenglerin A (epimer 3)]
IC50 [1, 18]: 42 µM
IC50 [2, 19]: 0.41 µM
Selectivity SF-295/UO-31 [2, 16]: 102

CC1CCC2C1C(OC(=O)C(Cl)C(O)c1ccccc1)C1(C(C)C)CC(OC(=O)CO)C2(C)O1 (single isomer, unassigned) [2′-Chloro,3′-hydroxydihydroenglerin (epimer 4), 2′-Chloro,3′-hydroxydihydroenglerin A (epimer 4)]
IC50 [1, 18]: 20 µM
IC50 [2, 19]: 16 µM
Selectivity SF-295/UO-31 [2, 16]: 1.25

CCOC(c1ccccc1)C(Cl)C(=O)OC1C2C(C)CCC2C2(C)OC1(C(C)C)CC2OC(=O)CO (stereo not drawn) [2′-Chloro,3′-ethoxydihydroenglerin A]
IC50 [1, 14]: 35 µM
IC50 [2, 15]: 18 µM
Selectivity SF-295/UO-31 [2, 16]: 1.94

CC(C)[C@@]12C[C@@H](OC(=O)CO)[C@@](C)(O1)[C@@H]1CC[C@@H](C)[C@H]1[C@@H]2OC(=O)/C(Cl)=C/c1ccccc1 [2′-Chloroenglerin A]
IC50 [1, 18]: 72 µM
IC50 [2, 19]: 0.92 µM
Selectivity SF-295/UO-31 [2, 16]: 78
GI50 [3]: 10 µM
GI50 [4]: 0.028 µM
GI50 [5]: 0.041 µM
GI50 [6]: 0.035 µM
GI50 [7]: 0.019 µM
GI50 [8]: 0.56 µM
GI50 [9]: 21 µM
GI50 [10]: 0.035 µM
GI50 [11, 20]: 0.21 µM
GI50 [11, 21]: 3.96 µM
GI50 [11, 17]: 0.04 µM
GI50 [12]: 5.6 µM

englerin B monoacetate
selectivity against renal cancer cell line A498 [13]: ~400 fold
